One assay concerns C. freundii. As to the kind of experiment: MIC determination by broth microdilution (MHB-CA, CLSI). Format: cell-based. The protocol:
(§1) Determination of MIC values were performed by broth microdilution in Cation-Adjusted Mueller-Hinton broth (MHB-CA) according to the CLSI guidelines (Clinical and Laboratory Standards Institute). Polymyxin B and colistin (Sigma-Aldrich, Saint-Louis) were tested with or without Tween 80 over a range dilution from 0.12 to 128 µg/ml. The surfactant Tween 80, at a final concentration of 0.002%, prevents the binding of polymyxins to multi-array plastic panel. Actually, the use of Tween for determination of MIC of polymyxins is still debatable. MHB-CA broth and 5.10^5 CFU/ml of each tested strain were distributed in each well. Following the EUCAST breakpoints, strains were characterized as susceptible or resistant to polymyxins.

Another assay relates to K. oxytoca. The description is as above. Particulars: strain C24. It counts as cell-based. As to the method:
as §1

For the substance colistin, the MIC with C. freundii (strain 38B2, With Tween80) worked out at 0.12 µg/mL; in the assay with C. freundii (strain 38B2, Without Tween80), 0.12 µg/mL; against C. freundii (strain C136, With Tween80), 0.12 µg/mL; with C. freundii (strain C136, Without Tween80) it was 0.25 µg/mL; against K. oxytoca (With Tween80) it was 64 µg/mL; in the assay on K. oxytoca (Without Tween80), 64 µg/mL.
Turning to polymyxin B, the MIC against C. freundii (strain 38B2, With Tween80) was 0.5 µg/mL; against C. freundii (strain 38B2, Without Tween80), 0.5 µg/mL; in the assay with C. freundii (strain C136, With Tween80) it was 0.25 µg/mL; against C. freundii (strain C136, Without Tween80), 0.5 µg/mL; against K. oxytoca (With Tween80) it was 64 µg/mL; in the assay on K. oxytoca (Without Tween80), 64 µg/mL.
